Experimental data: patent US20190151346A1, “COMBINATIONS THERAPIES FOR THE TREATMENT OF CANCER” (INSERM (INSTITUTE NATIONAL DE LA SANTÉ ET DE LA RECHERCHE …, priority 2016, published 2019)

Tests used:
Assay type in all cases: cell-based
EGFR [1] = assay: Tyrosine phosphorylation by Western blotting: EGFR phosphorylation in TNBC cell lines; details: for IL-17E- and EGF-induced phosphorylation of Y1086 EGFR: AZM475271 10 μM pre-treatment, FIG. 2A
Procedure: BT20 and MDA-MB468 triple negative (HER2-, ER-, PR-) were obtained from American Type Culture Collection (ATCC N°HTB19, and ATCC N°HTB132, respectively). […] MDA-MB468 cells were grown in a complete DMEM-F12 media with glutamine, 10% FCS and penicillin—streptomycin. All cells were maintained in a humidified 5% CO2 atmosphere at 37° C. All experiments were conducted with cells at confluency and starved for an overnight.
(§1) Cells (3×10^5) were seeded in 6-well plates in complete medium for 24 hours then starved for another overnight. Cells were then stimulated with IL-17E (10 ng/ml), EGF (10 ng/ml), or a combination of both for 30 min in serum-free medium. Cells were then lysed in 1% Triton X100 buffer and left on ice for 1 hours. Protein samples were then subjected to 8% SDS-PAGE. Western blotting using specific antibodies assessed then the phosphorylation of the various kinases.

Src = assay: Tyrosine phosphorylation by Western blotting: Src phosphorylation in TNBC cell lines
Procedure: (§2) BT20 and MDA-MB468 triple negative (HER2-, ER-, PR-) were obtained from American Type Culture Collection (ATCC N°HTB19, and ATCC N°HTB132, respectively). The LumB, and Her2-, ER-, PR-negative IJG-1731 cell line was previously established at the laboratory as described (Mombelli et al. Sci Rep. 2015 Jul. 8; 5:11874.) BT20 and IJG-1731 cells were grown in complete RPMI-1640 media with L-glutamine, supplemented with 10% fetal calf serum (FCS) and penicillin—streptomycin solution (100 μg/ml each) (Life technology, Saint-Aubain, France). MDA-MB468 cells were grown in a complete DMEM-F12 media with glutamine, 10% FCS and penicillin—streptomycin. All cells were maintained in a humidified 5% CO2 atmosphere at 37° C. All experiments were conducted with cells at confluency and starved for an overnight.
as §1

EGFR [2] = assay: Immunofluorescence microscopy: localization of EGFR; details: MDA-MB468; 10 ng/ml, 2 hours; FIG. 4A, FIG. 7
Procedure: as §2
Cells (4.10^3) were grown on Lab-Tek chambers slide in their respective complete culture medium for 24 hours then starved for an overnight. Cells were then stimulated with IL-17E (long/ml), EGF (10 ng/ml) or a combination of both for 2 hours at 37° C., washed, and fixed with 4% paraformaldehyde (PFA)-PBS solution at 4° C. […] Slides were mounted with mounting medium containing Dapi then visualized with a Leica DMRB fluorescence microscope and images analysis was performed with the Archimed Software (Microvision).

STAT3 = assay: Cellular fractionation and Western blotting: STAT3 and pSTAT3 translocation to the nucleus; details: MDA-MB468 fractions
Procedure: as §2
Cells (3×10^5) were seeded in 6-well plates in complete medium for 24 hours then starved for another overnight. Cells were stimulated for 2 hours at 37° C. with IL-17E (10 ng/ml), EGF (long/ml), or a combination of both as indicated. Cells were then washed with PBS and lysed in a lysis buffer (HEPES 10 mM, MgCl2 15 mM KCl 10 mM, DTT 0.5 mM, PMSF 0.2 mM, 1 mM Na3VO4, 10 mM NaF, 0.5% Nonidet P-40). […] Protein concentrations were determined by using Bradford method. […]

Compound	IL-17E- and EGF-induced phosphorylation of Y1086 EGFR (EGFR [1]; IJG-1731 and BT20 cell lines)	IL-17E- and EGF-induced phosphorylation of Y1086 EGFR (EGFR [1]; MDA-MB468)	EGFR activation downstream IL-17E or IL-17B (EGFR [1]; TNBC cells, Src specific inhibitor, discussion, FIG. 6)	IL-17E- and EGF-induced Src phosphorylation (Src; TNBC cell lines pre-treated with AZM475271 (10 μM), then stimulated with IL-17E or EGF (10 ng/ml), FIG. 2A)	translocation of EGFR (immunofluorescence) (EGFR [2])	phosphorylation of STAT3α and β (STAT3)	phosphorylation of Src at Y416 at suboptimal concentrations (Src; MDA-MB468, IL-17E 1 ng/ml alone or EGF 0.1-1 ng/ml alone, FIG. 3)
COc1ccc(Cl)c(Nc2ncnc3cc(OCC4CCN(C)CC4)c(OC)cc23)c1 [AZM475271]	abolished	to a lesser extent	inhibition	inhibited	–	–	–
EGF: epidermal growth factor, EGFR ligand used as stimulus (NSDSECPLSHDGYCLHDGVCMYIEALDKYACNCVVGYIGERCQYRDLKWWELR; Epidermal growth factor; UniProt P01133 971-1023, looked up)	–	–	–	–	induced strong translocation of EGFR from the membrane to the nucleus	induced the phosphorylation	failed to induce any significant phosphorylation
